Test results as given in US20130303465A1, “Cylodextrin Complexation Methods for Formulating Peptide Proteasome Inhibitors” (ONYX THERAPEUTICS, INC., priority 2012, published 2013).

How the values were obtained:
[1] = Slurry complexation of CFZ-API with SBECD and citric acid: dissolved complexed concentration; type: physicochemical
Method: In a 525 L stainless steel jacketed cooled tank controlled to 2° C.-8° C., a suspension of 2.0 kg carfilzomib-API (CFZ-API), 246 kg water for injection (WFI), and 100 kg sulfobutylether beta-cyclodextrin (SBECD) was prepared. Specifically, in the 525 L stainless steel jacketed cooled tank controlled to 2° C.-8° C., 100 kg SBECD was dissolved in 246 kg WFI. The Carfilzomib suspension was then prepared using 2.0 kg of CFZ-API. Mixing was performed using an impeller mixer to maintain suspension of the CFZ-API solids and dissolve the SBECD. In the same vessel, a probe style rotor-stator high shear mixer (homogenizer) was used as well as the low shear impeller. The high shear mixer was operated for approximately 1 hour yielding an even suspension and reduction of particle size for any larger primary particles or agglomerated API. After a suspension was achieved, 1.96 kg of citric acid was added as a 16% aqueous solution. The pH of the solution was then lowered inducing partial solubilization of the CFZ-API followed by and complexation due to the presence of SBECD. Mixing was continued for a further 24 hours with both the impeller and the high shear mixer and a dissolved concentration of CFZ-API of greater than 5.1 mg/mL was achieved. […]

[2] = Solubility of carfilzomib as a function of SBECD concentration, pH and temperature; type: physicochemical; conditions: SBECD solutions, citric acid 30 mM, pH 1.5 and pH 3.5, 5° C. and 25° C., 24 hours to equilibrate, FIG. 6
Method: The experiments at acidic conditions below the target pH values and titrated to pH 1.5 or 3.5 using aqueous sodium hydroside solution. Measurements of solubilized concentration were those from samples analyzed after 24 hours of time to equilibrate.

[3] = physchem

effect of higher SBECD concentration on solubility ([1]; FIG. 3): increased the solubility | dissolved concentration of CFZ-API ([1]; SBECD/WFI suspension plus citric acid, mixing 24 hours, 2-8° C., 400 L batch): greater than 5.1 mg/mL | solubility difference between low and high temperature [2]: No significant differences in solubility | solubility [3]: < 10 µg/mL
Compound: CC(C)C[C@H](NC(=O)[C@H](CCc1ccccc1)NC(=O)CN1CCOCC1)C(=O)N[C@@H](Cc1ccccc1)C(=O)N[C@@H](CC(C)C)C(=O)[C@@]1(C)CO1 [carfilzomib]
